The values below come from patent US6812228B2, “Benzoxazines for use in the treatment of parkinson's disease” (Warner-Lambert Company, priority 2000, dated 2004).

pIC50: −log10 of the molar value. Read-outs that look alike come from different tables or passages of the source.

Data set [1] deals with T1, human muscarinic receptor subtype M2 (Homo sapiens, UniProt P08172).
T1 sequence (P08172 1-466): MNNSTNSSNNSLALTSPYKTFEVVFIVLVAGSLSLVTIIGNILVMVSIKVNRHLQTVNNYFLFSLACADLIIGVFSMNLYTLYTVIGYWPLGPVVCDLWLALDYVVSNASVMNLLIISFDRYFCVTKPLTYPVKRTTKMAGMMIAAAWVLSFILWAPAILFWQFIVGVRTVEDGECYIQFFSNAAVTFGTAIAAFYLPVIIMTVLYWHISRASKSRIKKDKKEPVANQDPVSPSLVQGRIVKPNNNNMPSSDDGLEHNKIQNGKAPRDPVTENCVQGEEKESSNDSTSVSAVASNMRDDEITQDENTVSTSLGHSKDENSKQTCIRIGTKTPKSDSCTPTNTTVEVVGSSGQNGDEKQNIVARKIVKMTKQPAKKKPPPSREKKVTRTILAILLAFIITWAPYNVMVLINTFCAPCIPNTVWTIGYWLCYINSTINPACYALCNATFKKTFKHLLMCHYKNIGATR
The data set can be described thus: Muscarinic receptor binding, displacement of [3H]-NMS, membranes from transfected CHO cells. Here is the method:
(§1) The compounds were evaluated in standard assays used to measure muscarinic receptor binding, and they were compared with other benzoxazines described in Bioorganic & Medicinal Chemistry Letters 8, 1998:1991-1996, which is incorporated herein by reference. Specifically, the compounds were evaluated for their binding affinity toward five human muscarinic receptor subtypes (M1-M5) by the method of Dorje et al., J. Pharm. Exp. Ther. 1991;256:727-733, which is incorporated herein by reference. The binding was determined by measuring the displacement of [^3H]-NMS (N-methylscopolamine) binding using membranes from transfected Chinese hamster ovary (CHO) cells.

The target of data set [2] is T2, human muscarinic receptor subtype M1 (Homo sapiens, UniProt P11229).
T2 sequence (P11229 1-460): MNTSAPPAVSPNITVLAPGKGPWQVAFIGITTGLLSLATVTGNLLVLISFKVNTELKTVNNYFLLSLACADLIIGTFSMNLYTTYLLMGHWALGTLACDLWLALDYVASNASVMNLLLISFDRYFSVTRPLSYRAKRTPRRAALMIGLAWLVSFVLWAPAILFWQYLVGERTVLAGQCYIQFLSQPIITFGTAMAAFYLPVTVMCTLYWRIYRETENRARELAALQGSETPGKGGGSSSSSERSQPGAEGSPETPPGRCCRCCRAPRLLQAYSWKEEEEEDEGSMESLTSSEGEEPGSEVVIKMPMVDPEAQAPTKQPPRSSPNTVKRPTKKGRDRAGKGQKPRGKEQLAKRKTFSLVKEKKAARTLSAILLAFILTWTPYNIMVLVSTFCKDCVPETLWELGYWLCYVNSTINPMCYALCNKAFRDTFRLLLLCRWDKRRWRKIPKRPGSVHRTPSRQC
The description is as above. Here is the method: as §1

For data set [3], the target named is human muscarinic receptor subtype M3 (Homo sapiens, UniProt P20309). The data set is described as above. As to the method: as §1
In data set [4] the target is T3, human muscarinic receptor subtype M4 (Homo sapiens, UniProt P08173).
T3 sequence (P08173 1-479): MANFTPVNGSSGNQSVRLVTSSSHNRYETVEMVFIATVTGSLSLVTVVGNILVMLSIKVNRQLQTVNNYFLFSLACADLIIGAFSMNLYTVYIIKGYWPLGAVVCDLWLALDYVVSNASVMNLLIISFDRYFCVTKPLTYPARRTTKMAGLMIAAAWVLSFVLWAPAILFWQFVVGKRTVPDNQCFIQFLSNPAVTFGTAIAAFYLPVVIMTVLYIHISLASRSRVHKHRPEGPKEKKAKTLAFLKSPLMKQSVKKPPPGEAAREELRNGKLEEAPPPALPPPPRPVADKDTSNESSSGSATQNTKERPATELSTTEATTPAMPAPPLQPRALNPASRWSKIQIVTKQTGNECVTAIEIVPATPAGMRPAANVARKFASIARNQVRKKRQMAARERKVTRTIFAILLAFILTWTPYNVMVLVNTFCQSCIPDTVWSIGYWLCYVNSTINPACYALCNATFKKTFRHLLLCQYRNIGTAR
The data set is described as above. Conditions: for binds to the M4 receptor more than to M3 (selectivity): M4 versus M3; for bind to M4 more than some of the other subtypes (selectivity): M4 versus some of the other subtypes, upper figure (as much as). Here is the method: as §1

Data set [5] concerns the target T4, human muscarinic receptor subtype M5 (Homo sapiens, UniProt P08912).
T4 sequence (P08912 1-532): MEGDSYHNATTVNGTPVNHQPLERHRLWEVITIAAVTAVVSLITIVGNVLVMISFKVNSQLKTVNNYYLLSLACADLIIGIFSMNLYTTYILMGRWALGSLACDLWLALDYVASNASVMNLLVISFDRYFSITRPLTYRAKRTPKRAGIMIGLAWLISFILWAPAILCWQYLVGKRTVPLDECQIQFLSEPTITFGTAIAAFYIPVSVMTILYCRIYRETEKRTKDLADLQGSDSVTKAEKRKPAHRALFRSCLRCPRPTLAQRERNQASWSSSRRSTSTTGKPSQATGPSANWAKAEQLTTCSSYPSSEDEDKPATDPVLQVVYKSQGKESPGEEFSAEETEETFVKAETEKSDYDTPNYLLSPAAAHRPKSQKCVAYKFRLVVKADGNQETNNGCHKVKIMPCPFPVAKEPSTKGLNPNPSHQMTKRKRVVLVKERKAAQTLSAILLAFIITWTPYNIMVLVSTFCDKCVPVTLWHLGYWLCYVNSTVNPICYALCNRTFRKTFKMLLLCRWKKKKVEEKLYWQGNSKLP
The description is as above. As to the method:
as §1

Where [6] appears, read: [3H]-NMS displacement, CHO cell membranes, tested two to four times, SEM <=10%, read-out: Muscarinic Binding Activity M2 (IC50).
The mark [7] stands for this setting: [3H]-NMS displacement, CHO cell membranes, tested two to four times, SEM <=10%, read-out: Muscarinic Binding Activity M1 (IC50).
[8] abbreviates: [3H]-NMS displacement, CHO cell membranes, tested two to four times, SEM <=10%, read-out: Muscarinic Binding Activity M3 (IC50).
Where [9] appears, read: [3H]-NMS displacement, CHO cell membranes, tested two to four times, SEM <=10%, read-out: Muscarinic Binding Activity M4 (IC50).
[10] abbreviates: [3H]-NMS displacement, CHO cell membranes, tested two to four times, SEM <=10%, read-out: Muscarinic Binding Activity M5 (IC50).

Chain of human muscarinic receptor subtype M3 (P20309 whole entry): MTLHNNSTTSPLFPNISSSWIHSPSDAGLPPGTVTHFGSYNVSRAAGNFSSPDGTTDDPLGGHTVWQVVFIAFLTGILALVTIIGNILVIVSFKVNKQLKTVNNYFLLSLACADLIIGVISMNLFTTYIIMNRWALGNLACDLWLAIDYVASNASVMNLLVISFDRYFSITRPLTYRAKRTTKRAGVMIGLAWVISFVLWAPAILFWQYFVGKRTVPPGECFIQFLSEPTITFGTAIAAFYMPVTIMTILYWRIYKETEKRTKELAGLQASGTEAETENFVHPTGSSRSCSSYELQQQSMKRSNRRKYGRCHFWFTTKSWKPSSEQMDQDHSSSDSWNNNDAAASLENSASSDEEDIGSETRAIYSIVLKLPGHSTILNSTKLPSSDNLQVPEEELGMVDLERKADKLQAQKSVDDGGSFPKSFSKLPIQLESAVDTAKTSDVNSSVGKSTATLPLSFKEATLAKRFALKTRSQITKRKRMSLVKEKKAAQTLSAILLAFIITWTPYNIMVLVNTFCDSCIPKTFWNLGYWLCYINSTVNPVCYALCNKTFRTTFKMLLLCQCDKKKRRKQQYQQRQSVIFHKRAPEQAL

Consider `CCOC(=O)c1c(C)n(C)c2ccc3c(c12)CN1CCc2cc(OC)ccc2C1O3` (stereo not shown) [Prior Art Compound Et/Me/9-OMe/Me, reference compound], for which the pIC50 was 6.40 in data set [1] (setting [6]); 6.30 in data set [2] (setting [7]); 6.40 in data set [3] (setting [8]); 7.30 in data set [4] (setting [9]); 6.00 in data set [5] (setting [10]).

As to `CCCCCc1[nH]c2ccc3c(c2c1C(=O)OCC)CN1CCc2cc(OC)ccc2C1O3` (stereo not shown) [Example 7, 9-Methoxy-2-pentyl-11,12-dihydro-3H,6aH,13H-6-oxa-3,12a-diaza-benzo[a]cyclopent[h]anthracene-1-carboxylic acid ethyl ester], the melting point was 170 to 172 °C. In data set [1] (setting [6]), the pIC50 is 6.22. In addition, the negative logarithm of the IC50 (pIC50) in data set [2] (setting [7]) was 4.30. Also, the pIC50 in data set [3] (setting [8]) is 6.70. Further, the pIC50 in data set [4] (setting [9]) was 8.00. In addition, in data set [5] (setting [10]), the pIC50 was 5.00.

On to `CCOC(=O)c1c(C)n(CC)c2ccc3c(c12)CN1CCc2cc(OC)ccc2C1O3` (stereo not shown) [Prior Art Compound Et/Me/9-OMe/Et, reference compound], for which the pIC50 is 6.40 in data set [1]; 5.70 in data set [2]; 6.30 in data set [3]; 7.30 in data set [4]; 5.52 in data set [5].

For `CCCc1[nH]c2ccc3c(c2c1C(=O)OCC)CN1CCc2cc(OC)ccc2C1O3` (stereo not drawn) [Example 1, 9-Methoxy-2-propyl-11,12-dihydro-3H,6αH,13H-6-oxa-3,12α-diaza-benzo[a]cyclopent[h]anthracene-1-carboxylic acid ethyl ester], the melting point was in the range of 191 to 193 °C. For the same molecule, in data set [1] (setting [6]), the negative-log IC50 (pIC50) was 5.70. For the same molecule, the pIC50 in data set [2] (setting [7]) is 5.33. Besides, the pIC50 in data set [3] (setting [8]) was 6.89. Moreover, the pIC50 in data set [4] (setting [9]) was 8.05. In addition, the pIC50 in data set [5] (setting [10]) is 5.44.

As for `CCOC(=O)c1c(CC)[nH]c2ccc3c(c12)CN1CCc2cc(OC)ccc2C1O3` (stereo not shown) [Prior Art Compound Et/Et/9-OMe/H, reference compound], the pIC50 was 5.70 in data set [1] (setting [6]); 5.70 in data set [2] (setting [7]); 6.70 in data set [3] (setting [8]); 7.70 in data set [4] (setting [9]); 5.22 in data set [5] (setting [10]).

Regarding `CCOC(=O)c1c(C)[nH]c2ccc3c(c12)CN1CCc2cc(OC)ccc2C1O3` (stereo not shown) [Prior Art Compound Et/Me/9-OMe/H, reference compound], the pIC50 is 6.00 in data set [1] (setting [6]); 5.52 in data set [2] (setting [7]); 6.30 in data set [3] (setting [8]); 7.52 in data set [4] (setting [9]); 5.22 in data set [5] (setting [10]).

`CCOC(=O)c1c(CC)n(CC)c2ccc3c(c12)CN1CCc2cc(OC)ccc2C1O3` (stereo not shown) [Prior Art Compound Et/Et/9-OMe/Et, reference compound]: the pIC50 in data set [1] was 6.00; in data set [2] it was 5.30; in data set [3], 7.30; in data set [4], 7.70; in data set [5], 5.30.

In turn, `CCCc1[nH]c2ccc3c(c2c1C(=O)OCC)CN1CCc2cc(SC)ccc2C1O3` (stereo not shown) [Example 4, 9-Methylsulfanyl-2-propyl-11,12-dihydro-3H,6aH,13H-6-oxa-3,12a-diaza-benzo[a]cyclopent[h]anthracene-1-carboxylic acid ethyl ester] gave a melting point of 185 to 186 °C. Moreover, the pIC50 in data set [1] (setting [6]) was 5.70. The pIC50 in data set [2] (setting [7]) is 5.85. The pIC50 in data set [3] (setting [8]) was 6.70. In data set [4], the “binds to the M4 receptor more than to M3 (selectivity)” value is “about 30 fold” and the “bind to M4 more than some of the other subtypes (selectivity)” value is on record as “about 800 fold”. Besides, the pIC50 in data set [4] (setting [9]) is 8.22. For the same molecule, the pIC50 in data set [5] (setting [10]) was 5.46.

On to `CCCCCCc1[nH]c2ccc3c(c2c1C(=O)OCC)CN1CCc2cc(OC)ccc2C1O3` (stereo not shown) [Example 8, 2-Hexyl-9-methoxy-11,12-dihydro-3H,6aH,13H-6-oxa-3,12a-diaza-benzo[a]cyclopent[h]anthracene-1-carboxylic acid ethyl ester], for which the melting point lay within 157 to 160 °C. Further, the pIC50 in data set [1] (setting [6]) was 6.10. In addition, the pIC50 in data set [2] (setting [7]) was 5.70. For the same molecule, the pIC50 in data set [3] (setting [8]) is 6.40. Further, the pIC50 in data set [4] (setting [9]) was 7.52. Besides, in data set [5] (setting [10]), the pIC50 was 5.52.

On to `CCCCc1[nH]c2ccc3c(c2c1C(=O)OCC)CN1CCc2cc(SC)ccc2C1O3` (stereo not shown) [Example 6, 2-Butyl-9-methylsulfanyl-11,12-dihydro-3H,6aH,13H-6-oxa-3,12a-diaza-benzo[a]cyclopent[h]anthracene-1-carboxylic acid ethyl ester], for which the melting point fell in the range of 159 to 161 °C. For the same molecule, the pIC50 in data set [1] (setting [6]) is 5.40. Moreover, the pIC50 in data set [2] (setting [7]) was 5.70. Moreover, the pIC50 in data set [3] (setting [8]) was 5.30. The pIC50 in data set [4] (setting [9]) was 8.00. Besides, the pIC50 in data set [5] (setting [10]) was 5.70.

`CCCCc1[nH]c2ccc3c(c2c1C(=O)OCC)CN1CCc2cc(OC)ccc2C1O3` (stereo not shown) [Example 5, 2-Butyl-9-methoxy-11,12-dihydro-3H,6aH,13H-6-oxa-3,12a-diaza-benzo[a]cyclopent[h]anthracene-1-carboxylic acid ethyl ester]: the pIC50 is 6.26 in data set [1] (setting [6]); 6.10 in data set [2] (setting [7]); 6.72 in data set [3] (setting [8]); 8.22 in data set [4] (setting [9]); 4.89 in data set [5] (setting [10]). Besides, the “binds to the M4 receptor more than to M3 (selectivity)” value in data set [4] is “about 30 fold”. Further, the “bind to M4 more than some of the other subtypes (selectivity)” value in data set [4] is on record as “about 800 fold”.

For `CCCc1c(C(=O)OCC)c2c3c(ccc2n1C)OC1c2ccc(OC)cc2CCN1C3` (stereo not shown) [Example 3, 9-Methoxy-3-methyl-2-propyl-11,12-dihydro-3H,6aH,13H-6-oxa-3,12a-diaza-benzo[a]cyclopent[h]anthracene-1-carboxylic acid ethyl ester], the melting point was in the range of 150 to 151 °C. Also, the pIC50 in data set [1] (setting [6]) was 6.02. For the same molecule, the pIC50 in data set [2] (setting [7]) is 5.52. Moreover, the pIC50 in data set [3] (setting [8]) was 6.89. For the same molecule, the pIC50 in data set [4] (setting [9]) was 8.15. The pIC50 in data set [5] (setting [10]) is 5.22.
